Source: PMC9594046, “Identification of Histone Peptide Binding Specificity and Small-Molecule Ligands for the TRIM33α and TRIM33β Bromodomains” (ACS Chemical Biology, 2022)

Legend:
TRIM24 BRD = settings: read-out: TRIM24 Kd (ITC); cited from earlier work
BRPF1 BRD = settings: read-out: BRPF Kd (ITC); cited from earlier work
TRIM24 PHD-BRD = target: T1, TRIM24 PHD-BRD (Homo sapiens, UniProt O15164); experiment: AlphaScreen dose-response displacement of biotinylated H3 peptide
T1 sequence (O15164 with tags, fused parts or gaps): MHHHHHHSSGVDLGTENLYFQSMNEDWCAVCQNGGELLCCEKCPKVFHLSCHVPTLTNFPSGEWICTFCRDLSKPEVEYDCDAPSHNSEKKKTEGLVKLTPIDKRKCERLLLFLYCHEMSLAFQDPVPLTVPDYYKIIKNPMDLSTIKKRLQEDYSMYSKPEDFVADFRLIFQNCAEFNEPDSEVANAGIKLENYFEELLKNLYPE
Procedure: (§1) To establish an AlphaScreen assay,[13],[50],[51] the PHD-BRD cassettes of TRIM24 and both TRIM33 isoforms were expressed with an N-terminal His6 tag attached (CD spectra for these constructs are shown in Figure S9).
(§2) Assay buffer was freshly prepared each day by supplementing HEPES buffer with BSA, the pH was
(§3) adjusted to 7.6 and filter sterilized through a 0.22 µm filter, and stored at 4 °C until use.
(§4) steps, the plate was sealed, shaken for 10 sec at 600 rpm on a plate oscillator, and incubated at room
(§5) in triplicate, as point concentrations or serial buffer dilutions from 50 mM DMSO solutions.
(§6) peptide mix (7 µL) was dispensed into each well using a Thermo-Fisher electronic multi-channel
(§7) pipette, and incubated for 30 min. AlphaScreen bead mix (8 µL; 25 µg/mL of acceptor and donor beads)
(§8) was added to each well, taking adequate precautions to avoid light exposure, before being incubated for
(§9) 1 h. The plate was read using a Synergy™ 2 MultiMode Microplate Reader using the built-in
(§10) Single shot screening was performed in triplicate.
(§11) <0.5% DMSO. Inhibition is reported as a reduction in signal arising from peptide-bromodomain
(§12) interaction, normalised to a DMSO control. Signal response curves were obtained for peptides or
(§13) compounds in triplicate, with serial 1:2 dilutions. Samples containing buffer or DMSO in place of
(§14) compound were included in all assays for normalisation. Data were processed by fitting a four-
(§15) parameter equation shown below to calculate IC50 values using GraFit version 7.0.32 or GraphPad Prism
(§16) 𝑌 = 𝑀𝑖𝑛𝑖𝑚𝑢𝑚 + 𝑀𝑎𝑥𝑖𝑚𝑢𝑚 − 𝑚𝑖𝑛𝑖𝑚𝑢𝑚 ,𝑤ℎ𝑒𝑟𝑒 𝑋 = log (𝑐𝑜𝑚𝑝𝑜𝑢𝑛𝑑 𝑐𝑜𝑛𝑐𝑒𝑛𝑡𝑟𝑎𝑡𝑖𝑜𝑛) 1 + 10("#$%&!"’()(*+,, .,/01)
(§17) Assay buffer was prepared as above. For incubation steps, the plate was sealed, shaken for 10 sec at
(§18) 600 rpm on a plate oscillator, and incubated at room temperature in the dark. Peptides (5 µL) were
(§19) dilutions from 100 µM HEPES buffer stock solutions. Protein (7 µL) was dispensed into each well
(§20) using a Thermo-Fisher electronic multi-channel pipette, and incubated for 30 min. AlphaScreen bead
(§21) mix (8 µL; 25 µg/mL of acceptor and donor beads) was added to each well, avoiding light exposure,
(§22) before being incubated for 1 h. The plate was read using a Synergy™ 2 MultiMode Microplate Reader
(§23) Ni2+ chelate acceptor and streptavidin donor beads were prepared as a mixture in a 1:300 or 1:400
(§24) dilution as required (0.005–0.007 mg/mL FAC); biotinylated peptide employed, and final assay
(§25) concentrations were as detailed in table below. Assay well volume was 20 µL.
(§26) Peptides were supplied as 1–9 mg quantities with >95% purity (as determined by HPLC; Cambridge
(§27) Research Biochemicals or Genscript). Residual water and counter ions were predicted to comprise 20%
(§28) of the net mass, and peptides were dissolved to 10, 1.0, and 0.1 mM stocks in buffer (50 mM HEPES,
(§29) 500 mM NaCl; pH 7.6) before being stored at -80 °C in 5 µL aliquots. A terminal tyrosine residue was
(§30) incorporated into the peptide structure to allow for accurate quantification of concentration.

TRIM33α PHD-BRD = target: T2, TRIM33α PHD-BRD (Homo sapiens, UniProt Q9UPN9); experiment: as above; settings: for IC50: TRIM33α IC50 (AlphaScreen)
T2 sequence (Q9UPN9 888-1127): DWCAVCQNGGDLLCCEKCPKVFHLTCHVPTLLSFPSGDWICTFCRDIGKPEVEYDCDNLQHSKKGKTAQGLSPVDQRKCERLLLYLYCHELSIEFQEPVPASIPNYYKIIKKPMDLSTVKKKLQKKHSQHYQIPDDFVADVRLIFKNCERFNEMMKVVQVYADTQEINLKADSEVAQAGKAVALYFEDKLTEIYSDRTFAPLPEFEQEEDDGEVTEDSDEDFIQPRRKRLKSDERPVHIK
Procedure: as §1, §2, §3, §4, §5, §6, §7, §8, §9, §10, §11, §12, §13, §14, §15, §16, §17, §18, §19, §20, §21, §22, §23, §24, §25, §26, §27, §28, §29, §30

TRIM33 = tested on: TRIM33; parameters: method as in earlier work; settings: isoform later confirmed to be TRIM33α; read-out: reported TRIM33 IC50 (AlphaScreen); cited from earlier work
TRIM33β PHD-BRD [1] = target: T3, TRIM33β PHD-BRD (Homo sapiens, UniProt Q9UPN9); experiment: AlphaScreen dose-response displacement of biotinylated H3 peptide
T3 sequence (Q9UPN9 888-1110 isoform Q9UPN9-2 limits assumed): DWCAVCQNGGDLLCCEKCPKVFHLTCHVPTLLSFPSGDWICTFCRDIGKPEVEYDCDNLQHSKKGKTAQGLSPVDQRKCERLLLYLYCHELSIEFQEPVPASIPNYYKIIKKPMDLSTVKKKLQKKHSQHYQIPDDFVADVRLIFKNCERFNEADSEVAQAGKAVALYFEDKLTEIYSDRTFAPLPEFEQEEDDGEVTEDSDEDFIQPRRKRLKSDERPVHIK
Procedure: as §1, §2, §3, §4, §5, §6, §7, §8, §9, §10, §11, §12, §13, §14, §15, §16, §17, §18, §19, §20, §21, §22, §23, §24, §25, §26, §27, §28, §29, §30

TRIM33β PHD-BRD [2] = target: T3, TRIM33β PHD-BRD; experiment: Isothermal titration calorimetry (ITC); format: binding; parameters: The TRIM33β cassette (residues 888–1127) was expressed; made in house; host or cells: E. coli BL21 (DE3) Gold; settings: cell 40 µM compound, syringe 316 µM TRIM33β
Source text: The first data point was excluded from the analysis.
(1 picture or pasted object on this page, not shown here)

[3] = TRIM24 IC50 (AlphaScreen), peptide in assay H31-27K9Me3 (PHD)
[4] = TRIM24 IC50 (AlphaScreen), peptide in assay H31-27K9Me3K18Ac (DUAL)
[5] = TRIM24 IC50 (AlphaScreen), peptide in assay H31-27K18Ac (BRD)
[6] = peptide in assay H31-27K9Me3 (PHD)
[7] = peptide in assay H31-27K9Me3K18Ac (DUAL)
[8] = peptide in assay H31-27K18Ac (BRD)

Row | SMILES | Kd (TRIM24 BRD) [µM] | Kd (BRPF1 BRD) [µM] | IC50 (TRIM24 PHD-BRD; IC50 binding to the TRIM24 BRD-PHD (AlphaScreen), displacement of H3_1–27K18Ac) [µM] | displacement of H3_1–27K18Ac from TRIM33α (AlphaScreen) (TRIM33α PHD-BRD) | IC50 (TRIM33) [µM] | IC50 (TRIM24 PHD-BRD; [3]) [µM] | IC50 (TRIM24 PHD-BRD; [4]) [µM] | IC50 (TRIM24 PHD-BRD; [5]) [µM] | IC50 (TRIM33α PHD-BRD; [6]) [µM] | IC50 (TRIM33α PHD-BRD; [7]) [µM] | IC50 (TRIM33α PHD-BRD; [8]) [µM] | IC50 (TRIM33β PHD-BRD [1]; [6]) [µM] | IC50 (TRIM33β PHD-BRD [1]; [7]) [µM] | IC50 (TRIM33β PHD-BRD [1]; [8]) [µM] | binding to TRIM33β by ITC (TRIM33β PHD-BRD [2])
1 | COc1ccc(Oc2cc3c(cc2NS(=O)(=O)c2ccc(OC)c(OC)c2)n(C)c(=O)n3C)cc1 [Compound 2] | 0.222 | 0.137 | 0.219 | not for either isoform of TRIM33 | – | – | – | – | – | – | – | – | – | – | –
2 | COc1ccc(Nc2c(-c3[nH]cnc3C)nc3ccc(Br)cn23)cc1 [Compound 3] | – | – | – | – | 0.538 | 1.86 | 1.46 | 1.76 | 1.89 | 1.15 | 1.58 | 1.4 | 1.82 | 1.49 | Neither compound showed binding
3 | Cc1nc[nH]c1-c1nc2ccccn2c1NCCN1CCOCC1 [Compound 4] | – | – | – | – | 3.78 | 52 | 23.1 | 18.6 | > 250 | > 250 | > 250 | > 250 | 58.7 | 55.3 | Neither compound showed binding
4 | Cc1nc[nH]c1-c1nc2ccccn2c1NC1CCCCC1 [Compound 5] | – | – | – | – | – | 3.57 | 3.32 | 4.21 | 2.71 | 1.68 | 2.74 | 3.37 | 3.11 | 3.16 | –
5 | COC(=O)c1ccc2nc(-c3c[nH]c(C)n3)c(NC3CCCCC3)n2c1 [Compound 6] | – | – | – | – | – | 17.1 | 11.1 | 20 | > 250 | 75.1 | 16.6 | 6.69 | 8.86 | 7.91 | –
